pIC50: −log10 of the molar value.
Biological target: Cation-independent mannose-6-phosphate receptor (Homo sapiens, UniProt P11717)
Assay: Binding of the M6P Analogs of the Invention with CI-M6PR: 96-Well plates (Maxisorp Nunc) are incubated overnight at 4° C. with 200 μl of PMP (pentamannose 6-phosphate) at the concentration of 200 μg·ml−1, in carbonate buffer (NaHCO3/Na2CO3 at 0.1M, pH 9.6). The following day, the solution containing the residual PMP is discarded and the wells are saturated, for 1 h at ambient temperature, with 360 μl of 1% gelatin (Type A from Porcine Skin) diluted in PBS (1.9 mM NaH2PO4, 8.1 mM Na2PO4 and 154 mM NaCl, pH 7.4). The wells are then rinsed five times with PBS to which 0.2% gelatin has been added. All the washes and also the dilutions are carried out in the solution of PBS to which 0.2% gelatin has been added. The M6P analogs to be tested at the various concentrations (from 10−2 to 10−7 M) are pre-incubated in the presence of pre-biotinylated CI-M6PR (M6PRb) ([…]) for 20 min, then 200 μl of the mixture are incubated in the wells for 2 h, at ambient temperature. After three washes, the wells are incubated for 1 h with a streptavidin-peroxidase solution (250 μl per well; 3.10−8 M). After three more washes, 200 μl of a solution of OPD (o-phenylenediamine, 1 mg·ml−1 in citrate buffer, pH 5.0, and 1 μl 30% H2O2.ml−1; Sigma Aldrich) are added. […]

Chain of Cation-independent mannose-6-phosphate receptor (P11717 whole entry): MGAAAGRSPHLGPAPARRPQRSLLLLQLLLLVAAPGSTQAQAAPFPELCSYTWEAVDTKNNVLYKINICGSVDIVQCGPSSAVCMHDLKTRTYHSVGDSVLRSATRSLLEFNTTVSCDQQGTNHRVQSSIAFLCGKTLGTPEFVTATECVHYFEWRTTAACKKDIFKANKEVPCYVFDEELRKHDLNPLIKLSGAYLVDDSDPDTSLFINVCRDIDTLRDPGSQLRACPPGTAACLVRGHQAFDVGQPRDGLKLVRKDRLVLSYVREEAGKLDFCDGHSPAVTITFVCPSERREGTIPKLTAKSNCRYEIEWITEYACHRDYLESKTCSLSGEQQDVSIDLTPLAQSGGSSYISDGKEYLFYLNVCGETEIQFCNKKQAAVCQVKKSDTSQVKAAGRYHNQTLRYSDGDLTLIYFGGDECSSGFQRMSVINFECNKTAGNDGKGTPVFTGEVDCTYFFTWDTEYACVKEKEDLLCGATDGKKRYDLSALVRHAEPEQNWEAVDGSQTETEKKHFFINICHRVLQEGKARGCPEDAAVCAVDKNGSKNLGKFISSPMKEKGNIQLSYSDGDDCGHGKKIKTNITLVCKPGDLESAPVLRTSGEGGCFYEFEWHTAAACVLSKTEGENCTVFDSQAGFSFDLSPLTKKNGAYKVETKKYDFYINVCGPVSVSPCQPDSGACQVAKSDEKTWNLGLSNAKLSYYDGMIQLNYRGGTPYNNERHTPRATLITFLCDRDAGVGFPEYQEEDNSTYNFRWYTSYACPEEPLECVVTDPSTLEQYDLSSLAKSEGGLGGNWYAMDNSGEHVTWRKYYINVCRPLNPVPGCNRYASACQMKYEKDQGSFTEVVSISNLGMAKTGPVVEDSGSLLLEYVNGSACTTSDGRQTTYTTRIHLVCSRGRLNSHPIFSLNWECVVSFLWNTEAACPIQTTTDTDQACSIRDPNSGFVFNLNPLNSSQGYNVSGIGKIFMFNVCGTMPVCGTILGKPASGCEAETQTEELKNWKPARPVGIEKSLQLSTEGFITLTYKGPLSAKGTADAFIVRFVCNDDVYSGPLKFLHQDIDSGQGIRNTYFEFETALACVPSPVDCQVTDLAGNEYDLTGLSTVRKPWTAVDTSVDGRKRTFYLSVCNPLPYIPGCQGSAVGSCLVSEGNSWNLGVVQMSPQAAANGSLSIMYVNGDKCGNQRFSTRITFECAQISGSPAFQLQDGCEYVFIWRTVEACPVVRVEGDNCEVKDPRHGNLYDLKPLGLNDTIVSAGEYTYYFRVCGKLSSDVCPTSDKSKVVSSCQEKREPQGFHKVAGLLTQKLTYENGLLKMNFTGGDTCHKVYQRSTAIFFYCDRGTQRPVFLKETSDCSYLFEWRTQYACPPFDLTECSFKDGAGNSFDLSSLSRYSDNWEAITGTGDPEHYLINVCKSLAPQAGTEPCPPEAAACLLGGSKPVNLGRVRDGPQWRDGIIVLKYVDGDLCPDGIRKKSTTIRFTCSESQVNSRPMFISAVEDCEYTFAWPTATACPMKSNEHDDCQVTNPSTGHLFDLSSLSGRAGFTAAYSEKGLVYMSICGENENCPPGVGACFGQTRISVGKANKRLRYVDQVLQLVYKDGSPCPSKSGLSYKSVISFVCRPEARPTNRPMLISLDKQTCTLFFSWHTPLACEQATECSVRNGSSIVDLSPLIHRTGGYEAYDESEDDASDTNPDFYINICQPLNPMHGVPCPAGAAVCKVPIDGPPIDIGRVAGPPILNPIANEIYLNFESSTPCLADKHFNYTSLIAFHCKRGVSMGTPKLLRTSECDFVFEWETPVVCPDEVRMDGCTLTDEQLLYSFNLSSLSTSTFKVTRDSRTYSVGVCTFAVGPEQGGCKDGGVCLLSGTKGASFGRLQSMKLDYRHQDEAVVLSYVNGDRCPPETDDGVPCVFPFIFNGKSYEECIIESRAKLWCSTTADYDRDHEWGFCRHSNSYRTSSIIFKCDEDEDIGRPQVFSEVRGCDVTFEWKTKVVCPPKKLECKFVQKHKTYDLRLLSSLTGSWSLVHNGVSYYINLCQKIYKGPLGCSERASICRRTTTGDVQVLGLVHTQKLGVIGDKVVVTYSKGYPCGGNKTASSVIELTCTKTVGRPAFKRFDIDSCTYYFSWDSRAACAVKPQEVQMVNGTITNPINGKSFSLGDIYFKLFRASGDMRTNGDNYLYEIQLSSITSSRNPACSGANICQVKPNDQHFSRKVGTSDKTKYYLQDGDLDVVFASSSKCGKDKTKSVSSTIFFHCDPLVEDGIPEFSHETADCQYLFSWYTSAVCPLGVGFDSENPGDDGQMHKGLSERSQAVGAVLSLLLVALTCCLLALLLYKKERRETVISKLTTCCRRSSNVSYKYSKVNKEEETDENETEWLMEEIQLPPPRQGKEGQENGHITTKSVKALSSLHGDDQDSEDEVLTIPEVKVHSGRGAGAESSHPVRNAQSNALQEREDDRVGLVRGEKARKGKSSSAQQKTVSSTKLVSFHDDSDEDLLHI

pIC50: 5.30
SMILES: NCCO[C@H]1OC(CO)[C@@H](O)[C@H](O)C1O[C@H]1OC(CCP(=O)(O)O)[C@@H](O)[C@H](O)C1O (stereo partly specified)

— ChEMBL document CHEMBL5728232, “Multi-functionalized polysaccharide compounds and use thereof for targeting the cation-independent mannose 6-phosphate receptor” (2021)
